Experimental data reported in US5556842A, “Method for viable preservation of lung grafts” (Senju Pharmaceutical Co., Ltd., priority 1994, dated 1996).

Assays:
[1] = Acute toxicity LD50; set-up: species or system rats; settings: rat, in vivo
[2] = test system: lung graft (cardiac arrest donor lungs); assay: Left-lung transplantation model with cardiac arrest donor lungs; pulmonary function parameters over 6 hours after transplantation; type: in vivo, adult mongrel dogs
Text: The lung preserving effect of the lung graft preservative composition of this invention in the transplantation of cardiac arrest donor lungs was experimentally evaluated.
[Test substance] L-Ascorbyl DL-α-tocopheryl phosphate potassium (abbreviation: EPC-K) dissolved in modified Euro-Collins solution ^1)
[Method] The left-lung transplantation model was constructed in adult mongrel dogs and used. The donor was brought to cardiac standstill by intravenous administration of potassium chloride solution and allowed to stand at room temperature for 2 hours. Then, while Group I (n=3) was perfused with Euro-Collins solution, an organ preservative which is commonly used in lung transplantation, Group II (n=3) was perfused with the lung graft preservative composition of this invention, followed by preservation at 4° C. for 12 hours. After the lung was transplanted into the recipient, the right pulmonary artery and right main branchus were ligated and the pulmonary function parameters were determined over a period of 6 hours.

In the case of `Cc1c(C)c2c(c(C)c1OP(=O)(O)OC1=C(O)[C@@H]([C@@H](O)CO)OC1=O)CCC(C)(CCCC(C)CCCC(C)CCCC(C)C)O2` (mixture of isomers) [EPC-K, L-Ascorbyl DL-α-tocopheryl phosphate potassium], the LD50 ([1]; iv, i.v. (rats)) is reported as ≥ 100 mg/kg, the LD50 ([1]; po, p.o. (rats)) is reported as ≥ 5000 mg/kg and the “arterial blood carbon dioxide partial pressure (PaCO2)” value ([2]; 5 hours after lung transplantation, preserved at 4° C. for 12 hours, n=3) is reported as 32.4±20.9 mmHg. For the same compound, the “arterial blood oxygen partial pressure (PaO2)” value ([2]; 6 hours after lung transplantation, donor lung 2 h at room temperature after cardiac standstill, preserved at 4° C. for 12 hours, n=3) was 460±94 mmHg, the “extravascular lung water (EVLW), indicator of pulmonary edema” value ([2]; FIG. 3, vs. Euro-Collins solution (control)) was “effective in inhibiting edema” and the “pulmonary vascular resistance (PVR)” value ([2]; FIG. 5, vs. Euro-Collins solution (control)) was “inhibits the increase of pulmonary vascular resistance”. For the same compound, the “pulmonary arterial pressure (PAP)” value ([2]; FIG. 6, vs. Euro-Collins solution (control)) was “inhibits pulmonary edema without increasing pulmonary vascular resistance”, the “cardiac output (CO)” value ([2]; FIG. 7, vs. Euro-Collins solution (control)) was “exerts no adverse influence on the heart” and the “pulmonary blood shunt fraction” value ([2]; after 1 and 2 hours, FIG. 4, vs. Euro-Collins solution (control)) was “pulmonary blood shunt inhibitory effect which is significant after 1 and 2 hours”. For the same compound, the “arterial blood carbon dioxide partial pressure (PaCO2), effect in words” value ([2]; after 5 hours, vs. Group I (Euro-Collins solution), FIG. 2) was “remarkably effective”, the “various parameters of pulmonary function” value ([2]; after blood reperfusion) was “very favorable effects on various parameters of pulmonary function” and the “pulmonary blood shunt fraction, other time-points” value ([2]; time-points other than 1 and 2 hours, FIG. 4) was “This inhibitory effect was also noted at other time-points”. For the same compound, the “arterial blood oxygen partial pressure (PaO2), other time-points” value ([2]; time-points other than 6 hours, vs. Group I (Euro-Collins solution), FIG. 1) was “Results in Favor of Group II were obtained at other time-points, too”.
